Assay results: patent US9550821B2, “Modulation of ghrelin levels and ghrelin/unacylated ghrelin ratio using unacylated ghrelin” (ALIZÉ PHARMA SAS, priority 2012, dated 2017)
Each block holds one compound with its values, some of them ahead of it. Where no end group is shown, it is not given here.

Tests used:
[1] = tested on: glucose, insulin and lipid metabolisms; details: cited from earlier work; for retention of UAG full length activity on glucose, insulin and lipid metabolisms: from U.S. Pat. Nos. 8,222,217 and 8,318,664; for smallest UAG fragment retaining UAG biological activity: from U.S. Pat. Nos. 8,222,217, 8,318,664 and WO/2008/145749
[2] = Safety evaluation during overnight UAG infusion in T2DM subjects; format: in vivo, human
Description: (§1) A continuous overnight (15 hours) infusion of two doses of UAG (3 μg UAG/kg/hr and 10 μg UAG/kg/hr) versus placebo in a cross-over model on the AG concentrations was performed in eight overweight subjects with type 2 diabetes. FIG. 1 depicts a schematic representation of the study protocol. Glucose and insulin responses to a standard breakfast meal (SBM) in the subjects and reasonable metabolic control were assessed.
Standard breakfast meal (SBM) consisted of: • 3 slices wheat bread; • 3 portions of margarine; • 2 slices of cheese (48% fat); • 1 portion of jam; • 1 cup of whole milk; and • 1 boiled egg; for a total of 714 kcal (17% proteins; 46% fat; and 37% carbohydrates). […] At each of the 3 visits, the following safety parameters were assessed: hemoglobin, hematocrit, platelet count, WBC count, RBC count, and differential and were determined using Sysmex XE 2100, Firma Sysmex, Ecustraat 11, 4879 NP Etten-Leur. AST, ALT, alkaline phosphatase, total bilirubin, creatine phophokinase (CPK), lactate dehydrogenase (LDH), creatinine, urea, amylase, lipase, uric acid, glucose, cholesterol, LDL, HDL, triglycerides, sodium, potassium, calcium, chloride, protein and albumin are determined using the Hitachi Modular P800, Roche Transistorstraat 41, 1332 CK Almere. […] AG and UAG levels were assessed before the start of the overnight infusion, 10 minutes before the start and 30 minutes after the SBM. […]

[3] = Overnight (15 hours) UAG infusion in T2DM subjects: serum UAG levels by MSD ELISA; format: in vivo, human; details: placebo 105.9±31.4
Description: as §1
Single-center, investigator initiated, double blind and placebo controlled randomized study. During the first visit medical history, medication use and vital signs of subjects were checked. Blood samples were also taken for chemistry and hematology analysis. […]
Infusions were performed at the local clinical research unit for 15 hours from 9 pm to […]. […] The dose was calculated based on the subject's weight. […]
Standard breakfast meal (SBM) consisted of: • 3 slices wheat bread; • 3 portions of margarine; • 2 slices of cheese (48% fat); • 1 portion of jam; • 1 cup of whole milk; and • 1 boiled egg; for a total of 714 kcal (17% proteins; 46% fat; and 37% carbohydrates). […] At each of the 3 visits, the following safety parameters were assessed: hemoglobin, hematocrit, platelet count, WBC count, RBC count, and differential and were determined using Sysmex XE 2100, Firma Sysmex, Ecustraat 11, 4879 NP Etten-Leur. […]

AG-induced food intake = AG-induced food intake in rats; format: in vivo, Sprague-Dawley rats; details: rat, i.p. 42 μg/kg together with AG 13 μg/kg; food intake at 30 min, 1 h, 2 h
Description: With respect to the experimental data presented in FIG. 8, Sprague-Dawley rats of 7 weeks of age, weighing between 275 g and 300 g, were fed a pellet diet ad libitum and were singly housed in plastic cage. The experiment was performed at 2.5 h after the onset of the light cycle in freely fed rats. The rates were i.p. injected simultaneously with vehicle plus vehicle, vehicle+AG (13 μg/kg) or cyclised UAG (6-13) (SEQ ID NO: 25) (42 μg/kg)+AG (13 μg/kg). Immediately after the completion of the i.p. injection in rats, the night-ad-libitum food was removed and replaced by 2 pellets for each animal, previously weighed, placed into the top of the cage. Food intake was calculated as the difference between the food weight before and after the feeding period at each time interval (30 min, 1 h, and 2 h). Cumulative food intake was calculated by summating the values of the different time periods.

Compound: SPEHQRVQ [UAG (6-13)]
retention of UAG full length activity on glucose, insulin and lipid metabolisms [1]: retain the activity of UAG full length

serum UAG levels before start of the SBM (mean±SD) ([3]; 3 mcg/kg·hr UAG overnight infusion): 10998 ± 2623 pg/mL
serum UAG levels before start of the SBM (mean±SD) ([3]; 10 mcg/kg·hr UAG overnight infusion): 12085 ± 1616 pg/mL
Compound: CC(C)C[C@H](NC(=O)[C@H](CCCCN)NC(=O)[C@H](C)NC(=O)[C@@H]1CCCN1C(=O)[C@@H]1CCCN1C(=O)[C@H](CCCCN)NC(=O)[C@H](CCCCN)NC(=O)[C@H](CO)NC(=O)[C@H](CCC(=O)O)NC(=O)[C@H](CCCCN)NC(=O)[C@H](CCCNC(=N)N)NC(=O)[C@H](CCC(N)=O)NC(=O)[C@H](CCC(N)=O)NC(=O)[C@@H](NC(=O)[C@H](CCCNC(=N)N)NC(=O)[C@H](CCC(N)=O)NC(=O)[C@H](Cc1cnc[nH]1)NC(=O)[C@H](CCC(=O)O)NC(=O)[C@@H]1CCCN1C(=O)[C@H](CO)NC(=O)[C@H](CC(C)C)NC(=O)[C@H](Cc1ccccc1)NC(=O)[C@H](CO)NC(=O)[C@H](CO)NC(=O)CN)C(C)C)C(=O)N[C@@H](CCC(N)=O)C(=O)N1CCC[C@H]1C(=O)N[C@@H](CCCNC(=N)N)C(=O)O [UAG]
laboratory evaluations ([2]; 3 and 10 μg UAG/kg/hr overnight infusion): no significant changes in chemistry or parameters
side effects reported by subjects ([2]; 3 and 10 μg UAG/kg/hr overnight infusion vs placebo): did not report more side effects than placebo

Compound: Glu-His-Gln-Arg (EHQR; listed as Homo sapiens) [UAG (8-11)]
smallest UAG fragment retaining UAG biological activity [1]: smallest UAG fragment to retain UAG activities
retention of UAG full length activity on glucose, insulin and lipid metabolisms [1]: retain the activity of UAG full length

Compound: Ser-Pro-Glu-His-Gln-Arg-Val-Gln (cycl) (SPEHQRVQ; cyclised; (1)..(8) Cyclic; listed as Homo sapiens) [cyclic UAG (6-13)]
effect on AG-induced food intake (orexigenic effect) (AG-induced food intake): able to counteract the orexigenic effects induced by AG

Compound: His-Gln-Arg (HQR; listed as Homo sapiens) [UAG (9-11)]
retention of UAG full length activity on glucose, insulin and lipid metabolisms [1]: retain the activity of UAG full length

Compound: EHQRVQ [UAG (8-13)]
retention of UAG full length activity on glucose, insulin and lipid metabolisms [1]: retain the activity of UAG full length

Compound: His-Gln-Arg-Val (HQRV; listed as Homo sapiens) [UAG (9-12)]
smallest UAG fragment retaining UAG biological activity [1]: smallest UAG fragment to retain the biological activity of UAG
retention of UAG full length activity on glucose, insulin and lipid metabolisms [1]: retain the activity of UAG full length

Compound: Glu-His-Gln-Arg-Val (EHQRV; listed as Homo sapiens) [UAG (8-12)]
retention of UAG full length activity on glucose, insulin and lipid metabolisms [1]: retain the activity of UAG full length
